Laboratory results published in PubChem BioAssay (NCI).
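Exposure lasted 48 hours, with cells grown in 96-well plates and compounds tested at five concentrations. TGI marks complete inhibition of growth.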

Columns and labels:
Assay in all cases: DTP human tumour cell line panel, 48 h
MDA-MB-435 = system: MDA-MB-435
IGROV1 ovarian = system: IGROV1 ovarian
BT-549 breast = system: BT-549 breast
TK-10 renal = system: TK-10 renal
K-562 leukemia = system: K-562 leukemia
EKVX NSCLC = system: EKVX NSCLC
SR leukemia = system: SR leukemia
KM12 colon = system: KM12 colon
MDA-MB-231 breast = system: MDA-MB-231 breast
SW-620 colon = system: SW-620 colon
A498 renal = system: A498 renal
M14 melanoma = system: M14 melanoma

SMILES	TGI (MDA-MB-435) [µM]	TGI (IGROV1 ovarian) [µM]	TGI (BT-549 breast) [µM]	TGI (TK-10 renal) [µM]	TGI (K-562 leukemia) [µM]	TGI (EKVX NSCLC) [µM]	TGI (SR leukemia) [µM]	TGI (KM12 colon) [µM]	TGI (MDA-MB-231 breast) [µM]	TGI (SW-620 colon) [µM]	TGI (A498 renal) [µM]	TGI (M14 melanoma) [µM]
COc1ccc2oc(C(=O)N3CC(CCl)c4ccc([N+](=O)[O-])cc43)cc2c1 (configuration not stated)	> 100	29.5	> 100	> 100	> 100	> 100	> 100	> 100	54.5	> 100	58.5	> 100
COc1cccc(/C=C2\CCCCCC2=O)c1	> 100	> 100	> 100	> 100	> 100	> 100	> 100	> 100	> 100	> 100	> 100	> 100
COC(=O)C1(Cc2ccccc2)Cc2ccc3c(c2C1=O)CCC3 (configuration not stated)	> 77.9	> 100	> 87.7	> 84	> 100	> 75.2	> 73.4	> 100	> 100	> 100	> 89.8	97.7
CCOP(=O)(OCC)/C(C#N)=C/c1cccn1CC(C)C	> 100	> 100	> 100	> 100	> 100	> 100	> 100	> 100	> 100	> 100	> 100	> 100
CCOC(=O)CCC(NC(=O)c1ccc(Nc2nc3ccccc3nc2-c2cccs2)cc1)C(=O)OCC (configuration not stated)	> 100	> 100	> 100	> 100	> 100	> 100	> 100	> 100	> 100	> 100	> 100	> 100
NCCCN1CCN(CC(=O)O)CCN(CCCN)CCN(CC(=O)O)CC1	> 100	> 100	> 100	> 100	> 100	> 100	> 100	> 100	> 100	> 100	> 100	> 100
O=C(CCCl)NNC1=NCCN1	> 100	> 100	> 100	> 100	> 100	> 100	> 100	> 100	> 100	> 100	> 100	> 100
COc1ccc(O)c(C=NCCCN=Cc2cc(OC)ccc2O)c1	86.4	> 100	> 100	> 100	> 100	83	> 100	64.6	> 100	> 100	> 100	> 100
O=C1C=C(NCCc2cc(Br)c(O)c(Br)c2)C(=O)c2ncccc21	0.723	6.31	5.07	13.8	10	22	7.31	23.4	20.3	8.6	6.78	2.7
CN(C)c1nc(-c2ccccc2)c(C(=O)c2c[nH]c3ccccc23)s1	> 31.1	> 44.7	> 100	> 76.3	> 100	> 100	> 100	> 100	> 100	> 100	> 100	> 100
O=c1[nH]nc(Cc2ccc(Cl)cc2)n1/N=C\CC/C=N\n1c(Cc2ccc(Cl)cc2)n[nH]c1=O	> 100	41.3	> 83.2	> 100	> 100	78.5	14.8	> 100	> 58.4	> 100	> 100	> 100
CCCCn1c2c(n(CCCC)c1=S)-c1c(n(CCCC)c(=S)n1CCCC)SSSS2	23.9	4.2	28.1	22.9		23.2	> 100	> 33.1	2.28	3.8	> 100	17.5
CC1CCC2C(C(=O)O[C@H]3C4CCO[C@@H](OC5OC(CO)C(O)C(O)C5O)C4[C@@]4(CO)O[C@@H]34)=CO[C@@H](OC3OC(CO)C(O)C(O)C3O)C12 (some centres not stated)	> 10	> 10	> 10	> 10	> 10	> 10	> 10	> 10	> 10	> 10	> 10	> 10
Cc1cc(C)c2c(=O)n(CN3CCC(O)(c4ccccc4)CC3)sc2n1	48.7	> 100	> 100	29.8	> 100	81.7	82.8	> 100	> 100	69.5	> 100	> 100
